Key:
Format in all cases: in vivo
[1] = tested on: barnyardgrass (Echinochloa crus-galli); assay: Test A pre-/postemergence plant response
In short: (§1)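 Greenhouse trial, ~10 days. Soil (loam/sand) sprayed preemergence after seeding; emerged plants (1–2 leaf, 2–10 cm) sprayed postemergence in parallel. Response = visual injury vs untreated control, 0–100.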

[2] = tested on: corn (Zea mays); assay: Test A pre-/postemergence plant response
In short: as §1

[3] = tested on: giant foxtail (Setaria faberii); assay: Test A pre-/postemergence plant response
In short: as §1

[4] = tested on: large crabgrass (Digitaria sanguinalis); assay: Test A pre-/postemergence plant response
In short: as §1

[5] = tested on: morningglory (Ipomoea spp.); assay: Test A pre-/postemergence plant response
In short: as §1

[6] = tested on: pigweed (Amaranthus retroflexus); assay: Test A pre-/postemergence plant response
In short: as §1

[7] = tested on: velvetleaf (Abutilon theophrasti); assay: Test A pre-/postemergence plant response
In short: as §1

[8] = tested on: wheat (Triticum aestivum); assay: Test A pre-/postemergence plant response
In short: as §1

[9] = tested on: canarygrass (Phalaris minor); assay: Test B postemergence plant response
In short: (§2)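 Visual ratings from 0 (no effect) to 100 (complete control), made against controls 13–15 days after treatment, kept in a greenhouse. Compounds were applied postemergence to potted plants at the 1- to 4-leaf stage (2–18 cm).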

[10] = tested on: chickweed (Stellaria media); assay: Test B postemergence plant response
In short: as §2

[11] = tested on: windgrass (Apera spica-venti); assay: Test B postemergence plant response; conditions: for Plant response rating, Windgrass: Postemergence
In short: as §2

[12] = tested on: ducksalad (Heteranthera limosa); assay: Test B flooded paddy test; conditions: for Plant response rating, Flood, Ducksalad: 250 g ai/ha, flooded paddy test, visual rating on 0 to 100 scale (0 no effect, 100 complete control) after 13 to 15 days; for Plant response rating, Ducksalad: Flood (flooded paddy test), 13 to 15 days
In short: (§3)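 Plants were grown to the 2-leaf stage, then pots were flooded to 3 cm above the soil and compounds were applied directly into the paddy water. That depth was held throughout. After 13 to 15 days in a greenhouse, injury was visually rated against controls on a 0–100 scale.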

[13] = tested on: rice (Oryza sativa); assay: Test B flooded paddy test; conditions: for Plant response rating, Flood, Rice: 250 g ai/ha, flooded paddy test, visual rating on 0 to 100 scale (0 no effect, 100 complete control) after 13 to 15 days; for Plant response rating, Rice: Flood (flooded paddy test), 13 to 15 days
In short: as §3

[14] = Postemergence, 125 g ai/ha, visual injury, 0 to 100 scale (0 no effect, 100 complete control), approx. ten days
[15] = Postemergence, 500 g ai/ha, 0 to 100 scale, 0 = no effect, 100 = complete control, approx. ten days
[16] = Preemergence, 125 g ai/ha, 0 to 100 scale, 0 = no effect, 100 = complete control
[17] = Preemergence, 500 g ai/ha, visual injury, 0 to 100 scale (0 no effect, 100 complete control), approx. ten days
[18] = Postemergence, 31 g ai/ha, scale 0 to 100 (0 no effect, 100 complete control)
[19] = Postemergence, 62 g ai/ha, scale 0 (no effect) to 100 (complete control), 13 to 15 days
[20] = Postemergence, 125 g ai/ha, visual rating after 13 to 15 days, scale 0 (no effect) to 100 (complete control)
[21] = Postemergence, 250 g ai/ha, scale 0 to 100
[22] = 31 g ai/ha, scale of 0 to 100 where 0 is no effect and 100 is complete control
[23] = 62 g ai/ha, scale 0 to 100, 0 is no effect, 100 is complete control
[24] = 125 g ai/ha, scale 0 to 100, 0 is no effect, 100 is complete control
[25] = Postemergence, 125 g ai/ha, 0 to 100 scale where 0 is no effect and 100 is complete control
[26] = Preemergence, 500 g ai/ha, 0 to 100 scale, 0 = no effect, 100 = complete control
[27] = 62 g ai/ha, postemergence, 0 is no effect, 100 is complete control, 13 to 15 days
[28] = Postemergence, 31 g ai/ha, 0 to 100 scale (0 no effect, 100 complete control)
[29] = Postemergence, 125 g ai/ha, scale 0 to 100 (0 no effect, 100 complete control)
[30] = Postemergence, 250 g ai/ha, scale 0 to 100 (0 no effect, 100 complete control), 13 to 15 days
[31] = 62 g ai/ha, scale of 0 to 100 where 0 is no effect and 100 is complete control
[32] = Flood, 31 g ai/ha, scale 0 to 100 (0 no effect, 100 complete control)

In the case of `Cc1cc(C)cc(-n2c(-c3ccccc3)ncc(C(=O)C3=C(O)CCCC3=O)c2=O)c1` [Compound 33], the “Barnyardgrass plant response rating” value [1, 14] is reported as 80, the “Plant response rating, Barnyardgrass” value [1, 15] is reported as 100 and the “Plant response rating, Barnyardgrass” value [1, 16] is reported as 10. The “Plant response rating, Barnyardgrass” value [1, 17] was 90, the “Corn plant response rating” value [2, 14] was 0 and the “Plant response rating, Corn” value [2, 15] was 20. For the same compound, the “Plant response rating, Corn” value [2, 16] was 0, the “Plant response rating, Corn” value [2, 17] was 30 and the “Foxtail, Giant plant response rating” value [3, 14] was 60. The “Plant response rating, Foxtail, Giant” value [3, 15] was 100, the “Plant response rating, Foxtail, Giant” value [3, 16] was 30 and the “Plant response rating, Foxtail, Giant” value [3, 17] was 90. For the same compound, the “Crabgrass, Large plant response rating” value [4, 14] was 70, the “Plant response rating, Crabgrass, Large” value [4, 15] was 100 and the “Plant response rating, Crabgrass, Large” value [4, 16] was 80. The “Plant response rating, Crabgrass, Large” value [4, 17] was 100, the “Morningglory plant response rating” value [5, 14] was 80 and the “Plant response rating, Morningglory” value [5, 15] was 90. The “Plant response rating, Morningglory” value [5, 16] was 0, the “Plant response rating, Morningglory” value [5, 17] was 50 and the “Pigweed plant response rating” value [6, 14] was 90. For the same compound, the “Plant response rating, Pigweed” value [6, 15] was 100, the “Plant response rating, Pigweed” value [6, 16] was 80 and the “Plant response rating, Pigweed” value [6, 17] was 90. For the same compound, the “Velvetleaf plant response rating” value [7, 14] was 100, the “Plant response rating, Velvetleaf” value [7, 15] was 100 and the “Plant response rating, Velvetleaf” value [7, 16] was 50. The “Plant response rating, Velvetleaf” value [7, 17] was 80, the “Wheat plant response rating” value [8, 14] was 0 and the “Plant response rating, Wheat” value [8, 15] was 20. For the same compound, the “Plant response rating, Wheat” value [8, 16] was 0, the “Plant response rating, Wheat” value [8, 17] was 10 and the “Plant response rating, Canarygrass” value [9, 18] was 0. The “Plant response rating, Canarygrass” value [9, 19] was 0, the “Plant response rating, Canarygrass” value [9, 20] was 5 and the “Canarygrass plant response rating” value [9, 21] was 5. The “Plant response rating, Chickweed” value [10, 18] was 80, the “Plant response rating, Chickweed” value [10, 19] was 98 and the “Plant response rating, Chickweed” value [10, 20] was 100. For the same compound, the “Chickweed plant response rating” value [10, 21] was 100, the “Plant response rating, Windgrass” value ([11]; 62 g ai/ha, scale 0 (no effect) to 100 (complete control), 13 to 15 days) was 25 and the “Plant response rating, Windgrass” value ([11]; 125 g ai/ha, visual rating after 13 to 15 days, scale 0 (no effect) to 100 (complete control)) was 30. The “Plant response rating, Flood, Ducksalad” value [12] was 95, the “Plant response rating, Ducksalad” value [12, 22] was 60 and the “Plant response rating, Ducksalad” value [12, 23] was 75. The “Plant response rating, Ducksalad” value [12, 24] was 80, the “Plant response rating, Flood, Rice” value [13] was 50 and the “Plant response rating, Rice” value [13, 22] was 0. For the same compound, the “Plant response rating, Rice” value [13, 23] was 0 and the “Plant response rating, Rice” value [13, 24] was 20.
`CCCn1c(-c2cc(F)cc(F)c2)ncc(C(=O)C2=C(O)CCCC2=O)c1=O` [Compound 152] was tested, and the “Plant response rating, Barnyardgrass” value [1, 25] was 100, the “Plant response rating, Barnyardgrass” value [1, 15] was 100 and the “Plant response rating, Barnyardgrass” value [1, 16] was 50. For the same compound, the “Plant response rating, Barnyardgrass” value [1, 17] was 100, the “Plant response rating, Corn” value [2, 25] was 0 and the “Plant response rating, Corn” value [2, 15] was 50. For the same compound, the “Plant response rating, Corn” value [2, 16] was 0, the “Plant response rating, Corn” value [2, 17] was 30 and the “Plant response rating, Foxtail, Giant” value [3, 25] was 80. For the same compound, the “Plant response rating, Foxtail, Giant” value [3, 15] was 100, the “Plant response rating, Foxtail, Giant” value [3, 16] was 60 and the “Plant response rating, Foxtail, Giant” value [3, 17] was 90. For the same compound, the “Plant response rating, Crabgrass, Large” value [4, 25] was 90, the “Plant response rating, Crabgrass, Large” value [4, 15] was 100 and the “Plant response rating, Crabgrass, Large” value [4, 16] was 90. For the same compound, the “Plant response rating, Crabgrass, Large” value [4, 17] was 100, the “Plant response rating, Morningglory” value [5, 25] was 100 and the “Plant response rating, Morningglory” value [5, 15] was 100. The “Plant response rating, Morningglory” value [5, 16] was 60, the “Plant response rating, Morningglory” value [5, 17] was 80 and the “Plant response rating, Pigweed” value [6, 25] was 100. For the same compound, the “Plant response rating, Pigweed” value [6, 15] was 100, the “Plant response rating, Pigweed” value [6, 16] was 100 and the “Plant response rating, Pigweed” value [6, 17] was 100. The “Plant response rating, Velvetleaf” value [7, 25] was 100, the “Plant response rating, Velvetleaf” value [7, 15] was 100 and the “Plant response rating, Velvetleaf” value [7, 16] was 60. The “Plant response rating, Velvetleaf” value [7, 26] was 100, the “Plant response rating, Wheat” value [8, 25] was 20 and the “Plant response rating, Wheat” value [8, 15] was 70. For the same compound, the “Plant response rating, Wheat” value [8, 16] was 20, the “Plant response rating, Wheat” value [8, 26] was 50 and the “Canarygrass plant response rating (0 to 100 scale)” value [9, 27] was 45. For the same compound, the “Plant response rating, Canarygrass” value [9, 28] was 35, the “Plant response rating, Canarygrass” value [9, 29] was 80 and the “Plant response rating, Canarygrass” value [9, 30] was 85. The “Chickweed plant response rating (0 to 100 scale)” value [10, 27] was 65, the “Plant response rating, Chickweed” value [10, 28] was 10 and the “Plant response rating, Chickweed” value [10, 29] was 90. For the same compound, the “Plant response rating, Chickweed” value [10, 30] was 95, the “Windgrass plant response rating (0 to 100 scale)” value [11, 27] was 70 and the “Plant response rating, Windgrass” value ([11]; 31 g ai/ha, 0 to 100 scale (0 no effect, 100 complete control)) was 50. For the same compound, the “Plant response rating, Windgrass” value ([11]; 125 g ai/ha, scale 0 to 100 (0 no effect, 100 complete control)) was 85, the “Plant response rating, Windgrass” value ([11]; 250 g ai/ha, scale 0 to 100 (0 no effect, 100 complete control), 13 to 15 days) was 98 and the “Plant response rating, Flood, Ducksalad” value [12] was 100. For the same compound, the “Plant response rating, Ducksalad” value [12, 31] was 90, the “Plant response rating, Ducksalad” value [12, 24] was 100 and the “Ducksalad plant response rating” value [12, 32] was 0. The “Plant response rating, Flood, Rice” value [13] was 60, the “Plant response rating, Rice” value [13, 31] was 20 and the “Plant response rating, Rice” value [13, 24] was 30. For the same compound, the “Rice plant response rating” value [13, 32] was 20.
